This is an account of results in US12173007B2, “Imidazopyridazine IL-17 inhibitor compounds” (Janssen Pharmaceutica NV, priority 2021, dated 2024).

The target in assay [1] is IL-17A(FLAG-Tagged): IL-17RA(His-Tagged) binding (Homo sapiens, UniProt Q16552, K93Q). The assay is described as follows: IL-17A(FLAG-tagged):IL-17RA(His-tagged) binding disruption Eu-HTRF assay, Protocol 2. To be noted: FLAG-IL-17A 1 nM; average if tested more than once. From the text:
IL-17A(FLAG-Tagged): IL-17RA(His-Tagged) Binding Disruption Eu-HTRF Assay
An antibody directed against the FLAG tag of IL-17A (SEQ ID NO: 1) is labeled with the HTRF donor chromophore (Europium-cryptate). IL-17A is present as a dimer that is “locked into” this quaternary structure due to the formation of loop-spanning […] disulfide bridges. The construct of IL-17RA used in the assay excludes the […] portion of the receptor and is fused to a C-terminal 10×His tag (SEQ ID NO:2). An antibody directed against the His tag of the IL-17RA chimera is labeled with the HTRF acceptor chromophore (“D2”). The fluorescence-resonance energy transfer (FRET) depends on the vicinity of the donor chromophore to the acceptor, and interruption of the binding between the IL-17A and IL-17RA causes the reduction/loss of FRET. Therefore, this assay allows to evaluate the compound effect on the binding IL-17A and IL-17RA by monitoring the fluorescence intensity of donor vs acceptor. The assay was run using either Protocol 1 or Protocol 2 as described below.
Protocol 2. 40 nl of 2-fold serial diluted compound solution for total 22 dilution points is added into each well of a 1536-well, white, low-volume, non-binding plate (Greiner #782904), then 2 μl of FLAG tagged IL-17A at 2×final concentration (1 nM) in solution of PBS+0.01% Triton-X100 is added to each well. The assay plate is briefly centrifuged then incubated for 1 h at rt. A mixed solution is prepared containing 2×5 nM 10HIS×IL-17RA, 2×2.5 nM Eu-anti-FLAG (CISBIO), 2×5 nM D2-anti-HIS (CISBIO) in PBS+0.01% Triton-X100+200 mM Potassium Fluoride (Sigma 60238) and 2 μl of mix is added to each well of the assay plate. The plate is briefly centrifuged then incubated for 2 h at rt. The HTRF intensities at the wavelength of donor (615 nm) and acceptor (665 nm) are measured using BMG Pherastar. The ratio between intensities at two wavelengths is calculated and plotted against the compound concentration and the data is fitted to a one-site competition model to yield IC50 of the compound.
Background: Time-resolved FRET reads energy transfer from a long-lived donor to a nearby acceptor.

For assay [2], the system named is IL-17A-induced G-CSF production in human normal keratinocyte (NHK). The assay is described as follows: NHK assay: IL-17A-induced G-CSF production in normal human keratinocytes. In kind it is cell-based. To be noted: 24 h, IL-17A 5 ng/mL, G-CSF by HTRF, average if tested more than once. Here is the method:
IL-17A acts directly on keratinocytes through binding to dimeric receptor IL-17RA/RC and drives the production of a number of inflammatory mediators known to be elevated in psoriasis lesional tissue. IL-17A small molecule inhibitors that block the IL-17A to interact with IL-17R would inhibit the IL-17A signaling in its targeted cells such as keratinocytes. The compound functional activity is evaluated for its impact on IL-17A-induced G-CSF production in human normal keratinocyte (NHK).
Adult normal human keratinocytes are cultured in keratinocyte growth medium (Lonza) in a flask till reaching ˜90% confluence, then cells are transferred to a 384-well plate at density of 3000-4000 cell/well. Recombinant human IL-17A (Gibco PHC9174) is pre-incubated with titrated compound or DMSO for 1 h at rt then added to the cell culture plate. The final concentration of IL-17A is 5 ng/mL and DMSO is 0.2%, in the culture containing 5% FBS. Cells are cultured/treated for 24 h at 37° C. Supernatants are collected and G-CSF production is measured through HTRF technology using Human G-CSF Kit (CisBio). G-CSF concentration was extrapolated from the standard curve and IC50 is determined using GraphPad Prism. Cell viability is also evaluated using CellTiter-Glo kit (Promega) and effect of compound on cell viability is compared to DMSO control.

Some results are limits rather than exact numbers.

Chain of UniProt Q16552 (Q16552 with tags, fused parts or gaps K93Q): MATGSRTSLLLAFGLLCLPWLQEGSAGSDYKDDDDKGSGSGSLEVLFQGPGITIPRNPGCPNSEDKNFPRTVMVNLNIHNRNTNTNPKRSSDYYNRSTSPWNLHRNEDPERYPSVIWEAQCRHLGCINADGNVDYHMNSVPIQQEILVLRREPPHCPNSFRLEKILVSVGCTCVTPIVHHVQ

One may read the IC50 as the concentration needed to halve the response being measured. A high value points to weaker potency. In the case of `[2H]C1([2H])NC(=O)N([C@H](COC)c2cnn3cc([C@H](CCC(C)(C)C(F)(F)F)NC(=O)c4nonc4C(F)F)nc3c2)C([2H])([2H])C1(F)F` [Example 81, N—((S)-1-(7-((S)-1-(5,5-Difluoro-2-oxotetrahydropyrimidin-1(2H)-yl-4,4,6,6-d4)-2-methoxyethyl)imidazo[1,2-b]pyridazin-2-yl)-5,5,5-trifluoro-4,4-dimethylpentyl)-4-(difluoromethyl)-1,2,5-oxadiazole-3-carboxamide], the half-maximal inhibitory concentration (IC50) was under 50 nM in assay [1] and under 50 nM in assay [2] (Homo sapiens, Keratinocyte).
Turning to `COC[C@H](c1cnn2cc([C@@H](NC(=O)c3nonc3C)C(C3CC3)C3CC3)nc2c1)N1CC(F)(F)CNC1=O` [Example 102, N—((S)-2,2-Dicyclopropyl-1-(7-((S)-1-(5,5-difluoro-2-oxotetrahydropyrimidin-1(2H)-yl)-2-methoxyethyl)imidazo[1,2-b]pyridazin-2-yl)ethyl)-4-methyl-1,2,5-oxadiazole-3-carboxamide], the IC50 in assay [1] is under 50 nM; in assay [2] (Homo sapiens, Keratinocyte) it was under 50 nM.
On to `[2H]C1([2H])NC(=O)N([C@H](COC)c2cnn3cc([C@H](CCC(C)(C)C(F)(F)F)NC(=O)c4nonc4C4CC4)nc3c2)C([2H])([2H])C1(F)F` [Example 80, 4-Cyclopropyl-N—((S)-1-(7-((S)-1-(5,5-difluoro-2-oxotetrahydropyrimidin-1(2H)-yl-4,4,6,6-d4)-2-methoxyethyl)imidazo[1,2-b]pyridazin-2-yl)-5,5,5-trifluoro-4,4-dimethylpentyl)-1,2,5-oxadiazole-3-carboxamide], for which the IC50 in assay [1] is under 50 nM; in assay [2] (Homo sapiens, Keratinocyte), under 50 nM.
On to `CC(C)(CC[C@H](NC(=O)c1nonc1C1CC1)c1cn2ncc(CN3C[C@@H]4[C@H](CNC3=O)C4(F)F)cc2n1)C(F)(F)F` (relative stereo) [Example 118, 4-Cyclopropyl-N—((S)-1-(7-(((1S*,7R*)-8,8-difluoro-4-oxo-3,5-diazabicyclo[5.1.0]octan-3-yl)methyl)imidazo[1,2-b]pyridazin-2-yl)-5,5,5-trifluoro-4,4-dimethylpentyl)-1,2,5-oxadiazole-3-carboxamide], for which the half-maximal inhibitory concentration (IC50) is under 50 nM in assay [1] and over 100 nM in assay [2] (Homo sapiens, Keratinocyte).
Turning to `[2H]C1([2H])NC(=O)N([C@H](COC)c2cnn3cc([C@H](CCC(C)(C)C(F)(F)F)NC(=O)c4nonc4OC)nc3c2)C([2H])([2H])C1(F)F` [Example 73, N—((S)-1-(7-((S)-1-(5,5-Difluoro-2-oxotetrahydropyrimidin-1(2H)-yl-4,4,6,6-d4)-2-methoxyethyl)imidazo[1,2-b]pyridazin-2-yl)-5,5,5-trifluoro-4,4-dimethylpentyl)-4-methoxy-1,2,5-oxadiazole-3-carboxamide], the IC50 in assay [1] is under 50 nM; in assay [2] (Homo sapiens, Keratinocyte) it was under 50 nM.
As for `COC[C@H](c1cnn2cc([C@H](COC(C)(C)C(F)(F)F)NC(=O)c3ccnn3C(C)C)nc2c1)N1CC(F)(F)CNC1=O` [Example 65, N—((R)-1-(7-((S)-1-(5,5-Difluoro-2-oxotetrahydropyrimidin-1(2H)-yl)-2-methoxyethyl)imidazo[1,2-b]pyridazin-2-yl)-2-((1,1,1-trifluoro-2-methylpropan-2-yl)oxy)ethyl)-1-isopropyl-1H-pyrazole-5-carboxamide], the IC50 in assay [2] (Homo sapiens, Keratinocyte) was under 50 nM.
Turning to `COC[C@H](c1cnn2cc([C@@H](NC(=O)c3nonc3C3CC3)[C@@H](C)O[C@@H](C)C(F)(F)F)nc2c1)N1CC(F)(F)CNC1=O` [Example 43, 4-Cyclopropyl-N-((1R,2R)-1-(7-((S)-1-(5,5-difluoro-2-oxotetrahydropyrimidin-1(2H)-yl)-2-methoxyethyl)imidazo[1,2-b]pyridazin-2-yl)-2-(((S)-1,1,1-trifluoropropan-2-yl)oxy)propyl)-1,2,5-oxadiazole-3-carboxamide], in assay [2] (Homo sapiens, Keratinocyte), the concentration for half-maximal inhibition (IC50) was under 50 nM.
Still for that read-out and setting: then `COC[C@H](c1cnn2cc(C(CCC(C)(C)C(F)(F)F)NC(=O)c3nonc3C3CC3)nc2c1)N1CC(F)(F)CNC1=O` (single isomer, unassigned) [Example 46, 4-Cyclopropyl-N—((S*)-1-(7-((S)-1-(5,5-difluoro-2-oxotetrahydropyrimidin-1(2H)-yl)-2-methoxyethyl)imidazo[1,2-b]pyridazin-2-yl)-5,5,5-trifluoro-4,4-dimethylpentyl)-1,2,5-oxadiazole-3-carboxamide], with under 50 nM.
As to `Cc1nonc1C(=O)N[C@H](c1cn2ncc([C@@H](C3CC3)N3CCC(C(F)(F)F)NC3=O)cc2n1)C1CCC(F)(F)CC1` (single isomer, unassigned) [Example 49, N—((S)-(7-((R)-Cyclopropyl((R*)-2-oxo-4-(trifluoromethyl)tetrahydropyrimidin-1(2H)-yl)methyl)imidazo[1,2-b]pyridazin-2-yl)(4,4-difluorocyclohexyl)methyl)-4-methyl-1,2,5-oxadiazole-3-carboxamide], in assay [2], the IC50 is over 100 nM.
The compound `Cc1nonc1C(=O)N[C@H](c1cn2ncc([C@@H](C3CC3)N3CCC(C(F)(F)F)NC3=O)cc2n1)C1CCC(F)(F)CC1` (single isomer, unassigned) [Example 48, N—((S)-(7-((R)-Cyclopropyl((S*)-2-oxo-4-(trifluoromethyl)tetrahydropyrimidin-1(2H)-yl)methyl)imidazo[1,2-b]pyridazin-2-yl)(4,4-difluorocyclohexyl)methyl)-4-methyl-1,2,5-oxadiazole-3-carboxamide] returned a 50% inhibitory concentration (IC50) in assay [2] (Homo sapiens, Keratinocyte) of over 100 nM.
Same read-out and setting: with `COC[C@H](c1cnn2cc([C@@H](NC(=O)c3nonc3C)[C@@H](C)O[C@H](C)C(F)(F)F)nc2c1)N1CC(F)(F)CNC1=O` [Example 53, N-((1R,2R)-1-(7-((S)-1-(5,5-Difluoro-2-oxotetrahydropyrimidin-1(2H)-yl)-2-methoxyethyl)imidazo[1,2-b]pyridazin-2-yl)-2-(((R)-1,1,1-trifluoropropan-2-yl)oxy)propyl)-4-methyl-1,2,5-oxadiazole-3-carboxamide] the figure was under 50 nM.
Regarding `CCOCC(c1cnn2cc([C@@H](NC(=O)c3nonc3C3CC3)C3CCC(F)(F)CC3)nc2c1)N1CC(F)(F)CNC1=O` (single isomer, unassigned) [Example 36, 4-Cyclopropyl-N—((S)-(7-((S*)-1-(5,5-difluoro-2-oxotetrahydropyrimidin-1(2H)-yl)-2-ethoxyethyl)imidazo[1,2-b]pyridazin-2-yl)(4,4-difluorocyclohexyl)methyl)-1,2,5-oxadiazole-3-carboxamide], the half-maximal inhibitory concentration (IC50) in assay [2] (Homo sapiens, Keratinocyte) was under 50 nM.
In turn, `COC[C@H](c1cnn2cc([C@H](CC(C)(C)C(F)(F)F)NC(=O)c3nonc3C3CC3)nc2c1)N1CC(F)(F)CNC1=O` [Example 41, 4-Cyclopropyl-N—((S)-1-(7-((S)-1-(5,5-difluoro-2-oxotetrahydropyrimidin-1(2H)-yl)-2-methoxyethyl)imidazo[1,2-b]pyridazin-2-yl)-4,4,4-trifluoro-3,3-dimethylbutyl)-1,2,5-oxadiazole-3-carboxamide] displayed a half-inhibitory concentration (IC50) in assay [2] (Homo sapiens, Keratinocyte) of under 50 nM.
Still for that read-out and setting: with `Cc1nocc1C(=O)N[C@H](c1cn2ncc([C@@H](COC3CC3)N3CC(F)(F)CNC3=O)cc2n1)C1CCC(F)(F)CC1` [Example 38, N—((S)-(7-((S)-2-Cyclopropoxy-1-(5,5-difluoro-2-oxotetrahydropyrimidin-1(2H)-yl)ethyl)imidazo[1,2-b]pyridazin-2-yl)(4,4-difluorocyclohexyl)methyl)-3-methylisoxazole-4-carboxamide] the figure was under 50 nM.
